Assay results from the supplement of paper PMC13380429.

Key:
Details in all cases: 72 h
Calu-3 [1] = test: drug sensitivity score (DSS) for viability; higher = more toxic; extreme values may be limits of the assay
Vero E6 [2] = test: as above
Caco-2 [3] = test: as above
HepG2 [4] = test: as above
U2OS [5] = test: as above
Calu-3 [6] = test: cell viability relative to DMSO; higher = less toxic
Vero E6 [7] = test: as above
Caco-2 [8] = test: as above
HepG2 [9] = test: as above
U2OS [10] = test: as above
Calu-3 [11] = test: relative viability EC50 (midpoint between 100% and the lowest measured viability); higher = less toxic
Vero E6 [12] = test: as above
Caco-2 [13] = test: as above
U2OS [14] = test: as above
HepG2 [15] = test: as above

SMILES | drug sensitivity score (Calu-3 [1]) | drug sensitivity score (Vero E6 [2]) | drug sensitivity score (Caco-2 [3]) | drug sensitivity score (HepG2 [4]) | drug sensitivity score (U2OS [5]) | cell viability (Calu-3 [6]; 1 nM) [%] | cell viability (Calu-3 [6]; 10 nM) [%] | cell viability (Calu-3 [6]; 100 nM) [%] | cell viability (Calu-3 [6]; 1000 nM) [%] | cell viability (Calu-3 [6]; 10000 nM) [%] | cell viability (Vero E6 [7]; 1 nM) [%] | cell viability (Vero E6 [7]; 10 nM) [%] | cell viability (Vero E6 [7]; 100 nM) [%] | cell viability (Vero E6 [7]; 1000 nM) [%] | cell viability (Vero E6 [7]; 10000 nM) [%] | cell viability (Caco-2 [8]; 1 nM) [%] | cell viability (Caco-2 [8]; 10 nM) [%] | cell viability (Caco-2 [8]; 100 nM) [%] | cell viability (Caco-2 [8]; 1000 nM) [%] | cell viability (Caco-2 [8]; 10000 nM) [%] | cell viability (HepG2 [9]; 1 nM) [%] | cell viability (HepG2 [9]; 10 nM) [%] | cell viability (HepG2 [9]; 100 nM) [%] | cell viability (HepG2 [9]; 1000 nM) [%] | cell viability (HepG2 [9]; 10000 nM) [%] | cell viability (U2OS [10]; 1 nM) [%] | cell viability (U2OS [10]; 10 nM) [%] | cell viability (U2OS [10]; 100 nM) [%] | cell viability (U2OS [10]; 1000 nM) [%] | cell viability (U2OS [10]; 10000 nM) [%] | relative viability EC50 (Calu-3 [11]) [µM] | relative viability EC50 (Vero E6 [12]) [µM] | relative viability EC50 (Caco-2 [13]) [µM] | relative viability EC50 (U2OS [14]) [µM] | relative viability EC50 (HepG2 [15]) [µM]
CNC(=O)c1ccc(Nc2ncc(C(F)(F)F)c(NCc3nccnc3N(C)S(C)(=O)=O)n2)cc1 [defactinib] | 0 | 2.6 | 0 | 3.6 | 1.5 | 97.5 | 86.2 | 106 | 88.1 | 95.6 | 106 | 99.8 | 101 | 84.2 | 76 | 95.4 | 101 | 90.1 | 100 | 89.9 | 100 | 95.2 | 107 | 81.4 | 68.1 | 98.2 | 100 | 93.8 | 96.5 | 75 | > 10 | > 10 | > 10 | > 10 | –
CCOc1ccc2nc3cc(N)ccc3c(N)c2c1 [ethacridine-lactate-monohydrate] | – | 0 | 0 | 4.6 | 1.9 | – | – | – | – | – | 102 | 101 | 100 | 102 | 97.2 | 97.4 | 104 | 101 | 110 | 95.4 | 115 | 131 | 124 | 96.6 | 25.4 | 106 | 105 | 104 | 105 | 55.6 | – | > 10 | > 10 | – | 2.82
CC(=O)O[C@]1(C(C)=O)CC[C@H]2[C@@H]3CCC4=CC(=O)CC[C@]4(C)[C@H]3CC[C@@]21C [hydroxyprogesterone-acetate] | 0 | – | 0 | 0 | 0 | 103 | 115 | 91.3 | 95.7 | 93.8 | – | – | – | – | – | 95.8 | 98.6 | 90.2 | 104 | 98.9 | 98.7 | 95.5 | 110 | 90.3 | 102 | 99.2 | 101 | 106 | 99.9 | 98.7 | > 10 | – | > 10 | > 10 | > 10
N=C(N)c1ccc(/C=C/c2ccc(C(=N)N)cc2O)cc1 [hydroxystilbamidine] | 0 | 0 | 0 | 3 | 0 | 110 | 107 | 101 | 102 | 97.3 | 96.7 | 100 | 101 | 97.5 | 89.4 | 97.7 | 99.2 | 103 | 104 | 93.7 | 108 | 96.6 | 93.1 | 95.5 | 56.2 | 98 | 95.6 | 96.2 | 98.6 | 106 | > 10 | > 10 | > 10 | > 10 | –
C#Cc1cccc(Nc2ncnc3cc4c(cc23)OCCOCCOCCO4)c1 [icotinib] | 7.2 | 3.5 | 0.8 | 0 | 0 | 93.8 | 104 | 90.2 | 66.1 | 50.8 | 91.5 | 100 | 92 | 81.8 | 66.9 | 104 | 100 | 98.5 | 87.4 | 90.7 | 86.4 | 103 | 87.7 | 102 | 99.4 | 96.4 | 95.6 | 98.1 | 93.7 | 96.6 | – | – | > 10 | > 10 | > 10
CS(=O)(=O)CCNCc1ccc(-c2ccc3ncnc(Nc4ccc(OCc5cccc(F)c5)c(Cl)c4)c3c2)o1 [lapatinib] | 15.1 | 5.5 | 4.8 | 0 | 1.4 | 102 | 89.6 | 74.2 | 35.8 | 24.5 | 96.9 | 100 | 92.4 | 74.6 | 51.5 | 100 | 93.7 | 90.1 | 77.3 | 62.8 | 98 | 107 | 104 | 112 | 89.1 | 98.4 | 93.6 | 94 | 92.3 | 74.9 | 0.176 | – | – | – | > 10
Cc1ccccc1C(OCCN(C)C)c1ccccc1 (centres undefined) [orphenadrine] | 0 | – | 0 | 0 | 0 | 99.5 | 103 | 106 | 102 | 92.9 | – | – | – | – | – | 99.9 | 93.6 | 94.3 | 98.7 | 95.5 | 102 | 108 | 90.7 | 105 | 109 | 106 | 97.7 | 95.5 | 97.5 | 97.8 | > 10 | – | > 10 | > 10 | > 10
CCCCCCCCCCCCCCCCCCCCCCCCC(=O)O [pentacosanoic-acid] | 0 | – | 0 | 0 | 0 | 91.9 | 97.1 | 92.5 | 92.2 | 102 | – | – | – | – | – | 99.2 | 106 | 103 | 96.8 | 101 | 112 | 109 | 98 | 102 | 111 | 98.3 | 98.5 | 97.4 | 95.9 | 106 | > 10 | – | > 10 | > 10 | > 10
O=C1c2ccccc2C(=O)C1c1ccccc1 [phenindione] | 0 | – | 0 | 0 | 0 | 108 | 85.4 | 100 | 95.2 | 106 | – | – | – | – | – | 88.5 | 89.3 | 99.4 | 94.1 | 101 | 89.4 | 110 | 93.7 | 98.5 | 101 | 105 | 97.9 | 103 | 99.3 | 102 | > 10 | – | > 10 | > 10 | > 10
C=Cc1cc(O)cc2nc(-c3ccc(O)c(F)c3)oc12 [prinaberel] | 0 | 0 | 0.7 | 0.8 | 0 | 96.8 | 104 | 95.3 | 95.9 | 93.4 | 103 | 99.9 | 98 | 100 | 95.5 | 95.5 | 99.7 | 88.7 | 90 | 91.9 | 102 | 104 | 93.4 | 103 | 74.6 | 100 | 101 | 94.6 | 98.6 | 96.9 | > 10 | > 10 | > 10 | > 10 | –
CC(C)c1nc(N(C)S(C)(=O)=O)nc(-c2ccc(F)cc2)c1/C=C/[C@@H](O)C[C@@H](O)CC(=O)O [rosuvastatin] | 0 | 1.1 | 0.3 | 0 | 0 | 98.5 | 91.3 | 101 | 105 | 103 | 101 | 97.9 | 99.6 | 100 | 72.7 | 103 | 105 | 100 | 101 | 83.7 | 109 | 110 | 98.4 | 106 | 96.1 | 101 | 96.7 | 102 | 99.5 | 98 | > 10 | – | > 10 | > 10 | > 10
Cc1ccc(C(=O)Nc2ccc(S(=O)(=O)O)c3cc(S(=O)(=O)O)cc(S(=O)(=O)O)c23)cc1NC(=O)c1cccc(NC(=O)Nc2cccc(C(=O)Nc3cc(C(=O)Nc4ccc(S(=O)(=O)O)c5cc(S(=O)(=O)O)cc(S(=O)(=O)O)c45)ccc3C)c2)c1 [suramin] | 0 | – | 0 | 0 | 0 | 96.3 | 101 | 94.8 | 103 | 111 | – | – | – | – | – | 93.5 | 94.5 | 99 | 90.9 | 97.5 | 97.4 | 109 | 102 | 103 | 91.8 | 99.9 | 94.7 | 99.4 | 96.7 | 100 | > 10 | – | > 10 | > 10 | > 10
CC1(C)S[C@@H]2[C@H](NC(=O)[C@H](C(=O)O)c3ccsc3)C(=O)N2[C@H]1C(=O)O [ticarcillin] | 0 | – | 0 | 0 | 0 | 91.5 | 106 | 109 | 97.7 | 103 | – | – | – | – | – | 103 | 97.6 | 91.1 | 102 | 93.6 | 106 | 97.3 | 87.7 | 102 | 88.8 | 101 | 100 | 98.6 | 98.1 | 101 | > 10 | – | > 10 | > 10 | > 10
Cn1cncc1[C@@](N)(c1ccc(Cl)cc1)c1ccc2c(c1)c(-c1cccc(Cl)c1)cc(=O)n2C [tipifarnib] | 8.9 | 2.5 | 7.8 | 10.6 | 6.4 | 88.7 | 92.1 | 81.6 | 63.2 | 54.5 | 103 | 94.2 | 95.1 | 82.7 | 76.9 | 86.5 | 90.7 | 80.3 | 73.1 | 59.9 | 98.4 | 95.2 | 74.3 | 63.5 | 23.3 | 95.3 | 96.7 | 88.9 | 70.9 | 53.9 | – | > 10 | – | – | 0.532
NC(=S)N/N=C/c1ncccc1N [triapine] | 1.2 | 3.9 | 2.4 | 5 | 1 | 106 | 94.1 | 101 | 101 | 70.5 | 97 | 98.3 | 98.1 | 92.3 | 50.3 | 97.2 | 98.7 | 95.3 | 92.1 | 68.6 | 103 | 97.7 | 119 | 93 | 30.6 | 96.8 | 99.6 | 95.8 | 102 | 72.8 | – | – | – | – | 2.34
